According to PMC10176470, “Engaging a Non-catalytic Cysteine Residue Drives Potent and Selective Inhibition of Caspase-6” (Journal of the American Chemical Society, 2023):

Assays:
Format in all cases: cell-based
[1] = molecular target: proteins of HEK293T cells transiently overexpressing caspase-6 (Homo sapiens, UniProt O75874); details: exp_ref Probe; protein IDH1 (O75874); analysis C6
[2] = molecular target: proteins of HEK293T cells transiently overexpressing caspase-6 (Homo sapiens, UniProt P02786); details: protein TFRC (P02786)
[3] = molecular target: T1, proteins of HEK293T cells transiently overexpressing caspase-6 (Homo sapiens, UniProt P11498)
T1 sequence (P11498 21-1178): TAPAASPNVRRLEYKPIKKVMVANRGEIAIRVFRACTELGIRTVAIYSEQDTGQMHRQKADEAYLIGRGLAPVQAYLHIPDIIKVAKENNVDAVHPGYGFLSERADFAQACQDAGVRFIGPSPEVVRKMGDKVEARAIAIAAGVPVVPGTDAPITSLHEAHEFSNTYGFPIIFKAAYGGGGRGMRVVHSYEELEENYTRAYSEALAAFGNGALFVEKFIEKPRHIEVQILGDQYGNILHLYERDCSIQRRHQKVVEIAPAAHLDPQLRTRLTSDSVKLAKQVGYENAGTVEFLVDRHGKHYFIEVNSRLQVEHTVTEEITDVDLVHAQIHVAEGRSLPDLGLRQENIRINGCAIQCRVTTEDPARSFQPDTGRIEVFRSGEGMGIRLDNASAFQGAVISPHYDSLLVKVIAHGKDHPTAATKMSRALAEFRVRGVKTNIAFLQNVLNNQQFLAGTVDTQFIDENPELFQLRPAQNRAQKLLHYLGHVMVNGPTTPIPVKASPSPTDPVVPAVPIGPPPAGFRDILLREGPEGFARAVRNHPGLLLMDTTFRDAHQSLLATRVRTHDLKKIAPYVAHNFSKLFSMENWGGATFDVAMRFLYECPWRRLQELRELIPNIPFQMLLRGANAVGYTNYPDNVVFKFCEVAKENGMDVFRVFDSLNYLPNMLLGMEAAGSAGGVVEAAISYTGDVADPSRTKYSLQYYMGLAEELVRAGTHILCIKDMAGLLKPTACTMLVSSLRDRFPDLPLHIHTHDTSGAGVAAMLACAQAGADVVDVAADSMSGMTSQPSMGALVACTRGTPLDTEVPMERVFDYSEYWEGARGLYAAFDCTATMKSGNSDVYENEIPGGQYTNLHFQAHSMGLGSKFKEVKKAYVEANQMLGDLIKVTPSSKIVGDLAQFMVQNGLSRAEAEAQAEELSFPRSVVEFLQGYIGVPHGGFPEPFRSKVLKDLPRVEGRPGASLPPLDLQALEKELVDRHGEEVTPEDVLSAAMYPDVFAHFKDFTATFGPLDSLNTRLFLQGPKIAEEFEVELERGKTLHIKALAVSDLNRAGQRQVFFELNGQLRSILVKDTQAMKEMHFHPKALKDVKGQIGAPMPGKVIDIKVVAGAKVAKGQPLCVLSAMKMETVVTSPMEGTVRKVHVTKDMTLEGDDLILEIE

[4] = molecular target: T2, proteins of HEK293T cells transiently overexpressing caspase-6 (Homo sapiens, UniProt P22234); details: protein PAICS (P22234)
T2 sequence (P22234 1-425): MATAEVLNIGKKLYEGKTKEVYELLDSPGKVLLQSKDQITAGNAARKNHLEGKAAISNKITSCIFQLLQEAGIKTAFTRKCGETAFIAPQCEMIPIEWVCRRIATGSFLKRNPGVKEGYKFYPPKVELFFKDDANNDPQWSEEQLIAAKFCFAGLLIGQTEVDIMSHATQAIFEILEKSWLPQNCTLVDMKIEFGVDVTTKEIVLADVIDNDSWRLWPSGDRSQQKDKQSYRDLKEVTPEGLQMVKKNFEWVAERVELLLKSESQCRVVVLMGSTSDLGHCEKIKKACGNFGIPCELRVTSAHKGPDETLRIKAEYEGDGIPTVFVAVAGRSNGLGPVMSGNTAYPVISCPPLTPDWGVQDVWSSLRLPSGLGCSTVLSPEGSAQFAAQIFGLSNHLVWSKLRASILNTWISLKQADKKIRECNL

[5] = molecular target: proteins of HEK293T cells transiently overexpressing caspase-6 (Homo sapiens, UniProt P23528); details: protein CFL1 (P23528)
[6] = molecular target: proteins of HEK293T cells transiently overexpressing caspase-6 (Homo sapiens, UniProt P29692); details: exp_ref Probe; protein EEF1D (P29692); analysis C6
[7] = molecular target: proteins of HEK293T cells transiently overexpressing caspase-6 (Homo sapiens, UniProt P31946); details: exp_ref Probe; protein YWHAB (P31946); analysis C6
[8] = molecular target: proteins of HEK293T cells transiently overexpressing caspase-6 (Homo sapiens, UniProt P39687); details: exp_ref Probe; protein ANP32A (P39687); analysis C6
[9] = molecular target: proteins of HEK293T cells transiently overexpressing caspase-6 (Homo sapiens, UniProt P51991); details: exp_ref Probe; protein HNRNPA3 (P51991); analysis C6
[10] = molecular target: proteins of HEK293T cells transiently overexpressing caspase-6 (Homo sapiens, UniProt P54886); details: exp_ref Probe; protein ALDH18A1 (P54886); analysis C6
[11] = molecular target: proteins of HEK293T cells transiently overexpressing caspase-6 (Homo sapiens, UniProt Q9Y2X3); details: protein NOP58 (Q9Y2X3); exp_ref Probe; analysis C6
proteins of HEK293T cells transiently overexpressing caspase-6 (Homo sapiens, UniProt Q9Y2X3), sequence (Q9Y2X3 whole entry): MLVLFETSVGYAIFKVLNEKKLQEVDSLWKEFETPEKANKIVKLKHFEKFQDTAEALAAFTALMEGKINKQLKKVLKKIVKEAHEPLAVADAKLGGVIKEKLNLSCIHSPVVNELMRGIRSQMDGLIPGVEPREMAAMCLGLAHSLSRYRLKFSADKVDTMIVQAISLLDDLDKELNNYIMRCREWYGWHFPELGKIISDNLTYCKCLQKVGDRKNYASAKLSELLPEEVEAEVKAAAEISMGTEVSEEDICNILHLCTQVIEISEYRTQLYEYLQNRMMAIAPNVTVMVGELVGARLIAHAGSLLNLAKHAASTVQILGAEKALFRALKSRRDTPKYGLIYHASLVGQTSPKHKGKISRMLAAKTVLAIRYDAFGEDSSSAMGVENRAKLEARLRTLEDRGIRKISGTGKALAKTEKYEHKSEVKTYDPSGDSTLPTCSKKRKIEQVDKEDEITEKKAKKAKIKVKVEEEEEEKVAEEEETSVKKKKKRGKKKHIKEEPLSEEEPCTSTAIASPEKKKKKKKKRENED

proteins of HEK293T cells transiently overexpressing caspase-6 (Homo sapiens, UniProt P23528), sequence (P23528 whole entry): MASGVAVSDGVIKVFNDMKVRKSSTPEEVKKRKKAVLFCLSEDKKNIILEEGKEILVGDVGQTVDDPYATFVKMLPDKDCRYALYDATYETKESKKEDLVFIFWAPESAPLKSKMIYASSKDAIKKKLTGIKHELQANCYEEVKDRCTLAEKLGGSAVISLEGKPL
proteins of HEK293T cells transiently overexpressing caspase-6 (Homo sapiens, UniProt P02786), sequence (P02786 whole entry): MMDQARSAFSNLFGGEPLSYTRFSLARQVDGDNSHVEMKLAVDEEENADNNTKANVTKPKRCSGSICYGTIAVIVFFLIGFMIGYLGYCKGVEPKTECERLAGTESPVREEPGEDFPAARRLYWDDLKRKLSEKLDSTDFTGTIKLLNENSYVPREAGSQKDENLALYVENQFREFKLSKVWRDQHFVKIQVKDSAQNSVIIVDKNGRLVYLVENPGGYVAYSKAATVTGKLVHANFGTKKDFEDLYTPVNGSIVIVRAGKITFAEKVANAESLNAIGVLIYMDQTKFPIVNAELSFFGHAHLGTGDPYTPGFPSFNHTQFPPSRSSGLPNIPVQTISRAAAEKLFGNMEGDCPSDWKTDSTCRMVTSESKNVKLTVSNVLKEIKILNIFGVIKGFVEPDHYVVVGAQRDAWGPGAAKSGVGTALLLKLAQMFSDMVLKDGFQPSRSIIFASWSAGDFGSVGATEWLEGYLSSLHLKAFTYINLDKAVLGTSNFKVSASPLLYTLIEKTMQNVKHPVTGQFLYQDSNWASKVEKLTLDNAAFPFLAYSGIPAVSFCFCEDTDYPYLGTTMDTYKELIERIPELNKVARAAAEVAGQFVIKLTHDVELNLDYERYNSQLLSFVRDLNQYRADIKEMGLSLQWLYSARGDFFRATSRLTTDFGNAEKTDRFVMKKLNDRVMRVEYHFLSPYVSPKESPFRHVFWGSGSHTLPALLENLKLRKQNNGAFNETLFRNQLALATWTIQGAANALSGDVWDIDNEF
proteins of HEK293T cells transiently overexpressing caspase-6 (Homo sapiens, UniProt P51991), sequence (P51991 whole entry): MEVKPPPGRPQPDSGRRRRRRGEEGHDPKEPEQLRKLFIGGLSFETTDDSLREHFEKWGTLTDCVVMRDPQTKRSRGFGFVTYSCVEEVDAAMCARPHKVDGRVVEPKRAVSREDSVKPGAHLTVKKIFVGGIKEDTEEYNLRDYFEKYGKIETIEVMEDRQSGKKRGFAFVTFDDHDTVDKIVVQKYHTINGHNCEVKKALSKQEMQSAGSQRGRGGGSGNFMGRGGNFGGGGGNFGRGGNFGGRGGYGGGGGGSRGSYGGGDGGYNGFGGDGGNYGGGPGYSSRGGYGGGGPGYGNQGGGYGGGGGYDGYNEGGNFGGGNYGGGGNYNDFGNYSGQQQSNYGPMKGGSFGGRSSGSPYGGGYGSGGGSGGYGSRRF
proteins of HEK293T cells transiently overexpressing caspase-6 (Homo sapiens, UniProt P54886), sequence (P54886 whole entry): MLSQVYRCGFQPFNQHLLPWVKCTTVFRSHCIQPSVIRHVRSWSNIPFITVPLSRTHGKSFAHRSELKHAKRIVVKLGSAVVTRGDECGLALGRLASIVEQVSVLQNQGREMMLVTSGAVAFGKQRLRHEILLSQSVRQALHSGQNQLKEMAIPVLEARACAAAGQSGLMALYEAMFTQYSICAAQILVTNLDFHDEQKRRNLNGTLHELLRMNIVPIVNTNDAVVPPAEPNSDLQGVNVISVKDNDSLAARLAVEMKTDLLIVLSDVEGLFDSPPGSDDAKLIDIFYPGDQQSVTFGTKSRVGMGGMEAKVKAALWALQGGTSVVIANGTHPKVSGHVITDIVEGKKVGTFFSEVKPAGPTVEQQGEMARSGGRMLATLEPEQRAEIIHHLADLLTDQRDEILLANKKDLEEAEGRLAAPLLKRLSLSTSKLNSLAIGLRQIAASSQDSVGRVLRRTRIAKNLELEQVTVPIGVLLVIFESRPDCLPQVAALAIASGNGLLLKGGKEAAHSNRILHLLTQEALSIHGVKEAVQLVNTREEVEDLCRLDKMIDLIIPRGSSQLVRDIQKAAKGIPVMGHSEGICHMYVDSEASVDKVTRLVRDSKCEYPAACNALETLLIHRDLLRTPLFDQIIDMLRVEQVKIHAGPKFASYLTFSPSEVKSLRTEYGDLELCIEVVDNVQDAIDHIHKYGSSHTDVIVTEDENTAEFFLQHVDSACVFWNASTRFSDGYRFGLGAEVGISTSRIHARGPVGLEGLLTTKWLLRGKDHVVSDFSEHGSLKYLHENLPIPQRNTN
proteins of HEK293T cells transiently overexpressing caspase-6 (Homo sapiens, UniProt P29692), sequence (P29692 whole entry): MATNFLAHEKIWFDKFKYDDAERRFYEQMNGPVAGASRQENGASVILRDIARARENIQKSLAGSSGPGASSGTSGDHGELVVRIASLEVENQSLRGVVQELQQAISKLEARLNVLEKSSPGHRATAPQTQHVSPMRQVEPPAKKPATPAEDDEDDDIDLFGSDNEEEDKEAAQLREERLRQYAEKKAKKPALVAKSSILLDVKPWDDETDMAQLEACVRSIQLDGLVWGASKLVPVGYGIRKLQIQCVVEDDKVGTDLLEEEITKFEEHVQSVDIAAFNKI
proteins of HEK293T cells transiently overexpressing caspase-6 (Homo sapiens, UniProt P31946), sequence (P31946 whole entry): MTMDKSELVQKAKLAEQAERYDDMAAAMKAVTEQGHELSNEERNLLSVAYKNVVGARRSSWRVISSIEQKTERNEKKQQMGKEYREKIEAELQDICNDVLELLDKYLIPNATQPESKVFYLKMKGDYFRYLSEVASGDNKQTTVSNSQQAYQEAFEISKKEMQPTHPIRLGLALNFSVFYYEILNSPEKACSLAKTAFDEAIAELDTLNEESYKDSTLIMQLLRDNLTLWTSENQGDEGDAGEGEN
proteins of HEK293T cells transiently overexpressing caspase-6 (Homo sapiens, UniProt O75874), sequence (O75874 whole entry): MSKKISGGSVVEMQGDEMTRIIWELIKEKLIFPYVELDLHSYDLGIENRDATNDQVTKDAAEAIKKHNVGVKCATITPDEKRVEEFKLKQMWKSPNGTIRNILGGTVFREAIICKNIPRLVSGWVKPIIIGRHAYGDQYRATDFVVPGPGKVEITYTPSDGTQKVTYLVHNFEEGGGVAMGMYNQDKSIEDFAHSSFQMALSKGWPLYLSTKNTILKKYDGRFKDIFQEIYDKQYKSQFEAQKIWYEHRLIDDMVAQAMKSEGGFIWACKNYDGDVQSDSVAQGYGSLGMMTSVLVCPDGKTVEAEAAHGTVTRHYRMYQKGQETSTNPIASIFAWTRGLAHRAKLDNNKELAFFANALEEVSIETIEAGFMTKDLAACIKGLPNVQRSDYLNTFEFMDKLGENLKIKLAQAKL
proteins of HEK293T cells transiently overexpressing caspase-6 (Homo sapiens, UniProt P39687), sequence (P39687 whole entry): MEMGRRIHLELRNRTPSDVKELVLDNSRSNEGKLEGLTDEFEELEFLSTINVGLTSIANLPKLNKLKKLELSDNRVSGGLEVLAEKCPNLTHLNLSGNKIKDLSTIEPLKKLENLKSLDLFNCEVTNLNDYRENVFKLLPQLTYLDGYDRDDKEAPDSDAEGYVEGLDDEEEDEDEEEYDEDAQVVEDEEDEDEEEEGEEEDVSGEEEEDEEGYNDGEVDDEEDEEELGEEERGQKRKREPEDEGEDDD

`C#CCOc1ccc([C@@H]2C[C@@H](C(=O)Nc3ccc(OC(F)(F)F)cc3)CN(S(=O)(=O)C=C)C2)cc1` (relative stereo) [13-t] showed an enrich.exp.med [1] of -0.2162, an enrich.exp.med ([2]; exp_ref Probe, analysis C6) of 0.8901 and an enrich.exp.med.lin [2] of 1.853. It also gave an enrich.exp.med.log2 [2] of 0.8901, an enrich.exp.med ([3]; Probe, protein PC P11498) of -2.146 and an enrich.exp.med.lin ([3]; protein PC (P11498)) of 0.2259. For the same compound, the enrich.exp.med.log2 ([3]; protein PC (P11498)) was -2.146, the enrich.exp.med ([4]; exp_ref Probe, analysis C6) was 0.8585 and the enrich.exp.med.lin [4] was 1.813. The enrich.exp.med.log2 [4] was 0.8585, the enrich.exp.med ([5]; exp_ref Probe, analysis C6) was 0.4078 and the enrich.exp.med.lin [5] was 1.327. It also gave an enrich.exp.med.log2 [5] of 0.4078, an enrich.exp.med [6] of 0.2193 and an enrich.exp.med [7] of -0.2081. The enrich.exp.med [8] was 0.2226, the enrich.exp.med [9] was 0.2112 and the enrich.exp.med [10] was 0.3406. For the same compound, the enrich.exp.med [11] was 1.504.
